2 compounds from publication PMC10932305, “RAR Inhibitors Display Photo-Protective and Anti-Inflammatory Effects in A2E Stimulated RPE Cells In Vitro through Non-Specific Modulation of PPAR or RXR Transactivation” (International Journal of Molecular Sciences, 2024) can be followed below.

The Kd is the equilibrium constant for the complex coming apart. Read a low Kd as tighter binding.

The target of the experiment is T1, RAR-α (retinoic acid receptor α) (Homo sapiens, UniProt P10276).
T1 construct: gene RARA; human recombinant RARα-LBD expressed in insect cells
T1 sequence (P10276 183-417 limits assumed): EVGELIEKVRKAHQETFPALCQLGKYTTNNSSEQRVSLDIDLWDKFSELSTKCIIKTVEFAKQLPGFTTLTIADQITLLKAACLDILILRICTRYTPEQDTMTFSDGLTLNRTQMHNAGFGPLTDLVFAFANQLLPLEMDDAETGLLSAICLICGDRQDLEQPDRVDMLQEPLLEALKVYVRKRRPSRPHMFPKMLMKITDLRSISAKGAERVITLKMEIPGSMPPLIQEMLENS
The experiment is described as follows: radioligand competition binding (Eurofins Cerep).

`CC1=C(/C=C/C(C)=C/C=C/C(C)=C/c2cc(/C=C/C=C(C)/C=C/C3=C(C)CCCC3(C)C)cc[n+]2CCO)C(C)(C)CCC1` [A2E] displayed a Kd of 1.4 µM.
Consider `CC(=C/C=C/C(C)=C/C=C/C=C(C)/C=C/C=C(C)/C=C/C(=O)O)/C=C/C(=O)O` [NBX, norbixin], for which binding was characterised by a dissociation constant (Kd) of 47 µM.
